This passage reports IC50 results from ChEMBL document CHEMBL4665786, “Cellular Target Proteome in Breast Cancer Cells of an Oplopane Sesquiterpenoid Isolated from Tussilago farfara” (J Nat Prod, 2020).

What is called IC50 is the midpoint of a concentration-inhibition curve. High values mean a need for much substance, low ones inhibition by little substance.

For one test, the system named is MDA-MB-231. The test is described as follows: Antiproliferative activity against human MDA-MB-231 cells by MTT assay. The class given is functional, cell-based. For orientation: Formazan colour is commonly taken as a measure of viable cells.
Another test deals with MCF7. The test is described as follows: Antiproliferative activity against human MCF7 cells by MTT assay. The format is functional, cell-based.

SMILES strings stand for the structures.

Turning to `C=C1[C@H]2[C@@H]([C@@H]([C@H](C)OC(C)=O)C(=O)[C@H]2OC(=O)C(C)CC)[C@H](C(C)C)C[C@H]1OC(=O)/C=C(\C)CC` (stereo partly specified), the IC50 in the test with MDA-MB-231 amounted to 7.3 µM; in the test with MCF7 it was 12.8 µM.

Consider `C=C(C1C[C@@H]2O[C@]2(C)C(=O)[C@H]1OC(=O)/C(C)=C\C)[C@H](CC=C(C)C)OC(=O)/C(C)=C\C` (stereo partly specified), for which the IC50 with MDA-MB-231 and in the test with MCF7 was more than 10 µM each time.

As for `C/C=C1\C(=O)[C@@H](OC(=O)C(C)CC)[C@@H]2[C@@H]1[C@H](C(C)C)C[C@@H](OC(=O)/C=C(\C)CC)C2(O)CN=[N+]=[N-]` (stereo partly specified), the IC50 in the test with MDA-MB-231 came out at 5.5 µM; in the test with MCF7 it was 14.1 µM.

For the compound `C=C1[C@H](OC(=O)/C=C(\C)CC)C[C@@H](C(C)C)[C@@H]2/C(=C/C)C(=O)C[C@@H]12`, the IC50 in the test with MDA-MB-231 and with MCF7 was more than 10 µM throughout.

Regarding `C=C1[C@H](OC(=O)/C=C(\C)CC)C[C@@H](C(C)C)[C@@H]2/C(=C\C)C(=O)C[C@@H]12`, the IC50 in the test with MDA-MB-231 and in the test with MCF7 was more than 10 µM throughout.

With `C=C1[C@H](OC(=O)/C=C(\C)CC)C[C@@H](C(C)C)[C@@H]2[C@@H]([C@H](C)OC(C)=O)C(=O)C[C@@H]12`, the IC50 in the test with MDA-MB-231 and with MCF7 was more than 10 µM throughout.

For the compound `C=C1[C@H]2[C@@H](C(C(C)OC)C(=O)[C@H]2OC(=O)C(C)CC)[C@H](C(C)C)C[C@H]1OC(=O)/C=C(\C)CC` (stereo partly specified), the IC50 in the test with MDA-MB-231 is more than 90 µM.

For `C=C1[C@@H]2C(O)C(=O)C(C(C)OC)[C@H]2[C@H](C(C)C)C[C@H]1OC(=O)/C=C(\C)CC` (stereo partly specified), in the test with MDA-MB-231, the IC50 was more than 90 µM.

For the compound `C=C(C1[C@H](OC(C)=O)C(=O)[C@@]2(C)O[C@H]2[C@@H]1OC(C)=O)[C@H](CC=C(C)C)OC(=O)/C(C)=C\C` (stereo partly specified), the IC50 in the test with MDA-MB-231 and with MCF7 was more than 10 µM each time.

Take `C=C1[C@@H]2C(O)C(=O)/C(=C\C)[C@H]2[C@H](C(C)C)C[C@H]1OC(=O)/C=C(\C)CC` (stereo partly specified): the IC50 in the test on MDA-MB-231 amounted to 11.3 µM.

As to `C=C(C1C[C@@H]2O[C@]2(C)C(=O)[C@H]1OC(C)=O)[C@H](CC=C(C)C)OC(=O)/C(C)=C\C` (stereo partly specified), the IC50 in the test with MDA-MB-231 and with MCF7 was more than 10 µM in each case.

Turning to `C/C=C1\C(=O)[C@@H](OC(=O)C(C)CC)[C@@H]2[C@@H]1[C@H](C(C)C)C[C@@H](OC(=O)/C=C(\C)CC)C21CO1` (stereo partly specified), the values for the IC50 in the test on MDA-MB-231 and in the test on MCF7 were 8.6 µM and 17.6 µM, respectively.
